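Method: 48-hour compound exposure of cells in 96-well plates, five concentrations, linear interpolation of endpoints. Here, GI50 denotes the concentration required for 50% inhibition of growth.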 Active and inactive are the calls of the source. No stated cut-off is given here; in the data, active = GI50 up to about 1.1 µM and inactive = higher.
Tests used:
Assay in all cases: inhibition of tumour cell growth, NCI panel, 48 h
A498 = system: A498
A549 = system: A549
BT-549 = system: BT-549
CAKI-1 = system: CAKI-1
CCRF-CEM = system: CCRF-CEM
COLO 205 = system: COLO 205
DU-145 = system: DU-145
EKVX = system: EKVX
HCC 2998 = system: HCC 2998
HCT-116 = system: HCT-116
HCT-15 = system: HCT-15
HL-60 = system: HL-60
HOP-62 = system: HOP-62
HOP-92 = system: HOP-92
HT-29 = system: HT-29
Hs-578T = system: Hs-578T
IGROV-1 = system: IGROV-1
K562 = system: K562
LOX IMVI = system: LOX IMVI
M14 = system: M14
MCF7 = system: MCF7
MDA-MB-231 = system: MDA-MB-231
MDA-MB-435 = system: MDA-MB-435
MDA-N = system: MDA-N
MOLT-4 = system: MOLT-4
Malme-3M = system: Malme-3M
NCI-H226 = system: NCI-H226
NCI-H23 = system: NCI-H23
NCI-H460 = system: NCI-H460
NCI/ADR-RES = system: NCI/ADR-RES
OVCAR-3 = system: OVCAR-3
OVCAR-4 = system: OVCAR-4
OVCAR-5 = system: OVCAR-5
OVCAR-8 = system: OVCAR-8
PC-3 = system: PC-3
RXF 393 = system: RXF 393
SF-268 = system: SF-268
SF-295 = system: SF-295
SF-539 = system: SF-539
SK-MEL-28 = system: SK-MEL-28
SK-MEL-2 = system: SK-MEL-2
SK-MEL-5 = system: SK-MEL-5
SK-OV-3 = system: SK-OV-3
SN12C = system: SN12C
SNB-75 = system: SNB-75
SR = system: SR
SW-620 = system: SW-620
T47D = system: T47D
TK-10 = system: TK-10
U-251 = system: U-251
UACC-257 = system: UACC-257
UACC-62 = system: UACC-62
UO-31 = system: UO-31
786-0 = system: 786-0
ACHN = system: ACHN
KM12 = system: KM12
NCI-H522 = system: NCI-H522
RPMI-8226 = system: RPMI-8226
SNB-19 = system: SNB-19

## CO/N=C1/c2sccc2[C@H](NC(=O)C(F)(F)F)[C@@H]1O
A498
  GI50: > 100 µM (inactive)
A549
  GI50: > 100 µM (inactive)
BT-549
  GI50: > 100 µM (inactive)
CAKI-1
  GI50: > 100 µM (inactive)
CCRF-CEM
  GI50: > 100 µM (inactive)
COLO 205
  GI50: > 100 µM (inactive)
DU-145
  GI50: > 100 µM (inactive)
EKVX
  GI50: > 100 µM (inactive)
HCC 2998
  GI50: > 100 µM (inactive)
HCT-116
  GI50: > 100 µM (inactive)
HCT-15
  GI50: > 100 µM
HL-60
  GI50: > 100 µM (inactive)
HOP-62
  GI50: > 100 µM (inactive)
HOP-92
  GI50: > 100 µM (inactive)
HT-29
  GI50: > 100 µM (inactive)
Hs-578T
  GI50: > 100 µM (inactive)
IGROV-1
  GI50: > 100 µM (inactive)
K562
  GI50: > 100 µM (inactive)
LOX IMVI
  GI50: > 100 µM (inactive)
M14
  GI50: > 100 µM (inactive)
MCF7
  GI50: > 100 µM (inactive)
MDA-MB-231
  GI50: > 100 µM (inactive)
MDA-MB-435
  GI50: > 100 µM (inactive)
MDA-N
  GI50: > 100 µM (inactive)
MOLT-4
  GI50: > 100 µM (inactive)
Malme-3M
  GI50: > 100 µM (inactive)
NCI-H226
  GI50: > 100 µM (inactive)
NCI-H23
  GI50: > 100 µM (inactive)
NCI-H460
  GI50: > 100 µM (inactive)
NCI/ADR-RES
  GI50: > 100 µM (inactive)
OVCAR-3
  GI50: > 100 µM (inactive)
OVCAR-4
  GI50: > 100 µM (inactive)
OVCAR-5
  GI50: > 100 µM (inactive)
OVCAR-8
  GI50: > 100 µM (inactive)
PC-3
  GI50: > 100 µM (inactive)
RXF 393
  GI50: > 100 µM (inactive)
SF-268
  GI50: > 100 µM (inactive)
SF-295
  GI50: > 100 µM (inactive)
SF-539
  GI50: > 100 µM (inactive)
SK-MEL-28
  GI50: > 100 µM (inactive)
SK-MEL-2
  GI50: > 100 µM (inactive)
SK-MEL-5
  GI50: > 100 µM (inactive)
SK-OV-3
  GI50: > 100 µM (inactive)
SN12C
  GI50: > 100 µM (inactive)
SNB-75
  GI50: > 100 µM (inactive)
SR
  GI50: > 100 µM (inactive)
SW-620
  GI50: > 100 µM (inactive)
T47D
  GI50: > 100 µM (inactive)
TK-10
  GI50: > 100 µM (inactive)
U-251
  GI50: > 100 µM (inactive)
UACC-257
  GI50: > 100 µM (inactive)
UACC-62
  GI50: > 100 µM (inactive)
UO-31
  GI50: > 100 µM (inactive)

## CC(C)N(Cc1ccccc1)S(=O)(=O)c1nc(C(C)(C)C)n[nH]1
786-0
  GI50: > 100 µM (inactive)
A498
  GI50: > 100 µM (inactive)
A549
  GI50: > 100 µM (inactive)
ACHN
  GI50: > 100 µM (inactive)
BT-549
  GI50: > 100 µM (inactive)
CAKI-1
  GI50: > 100 µM (inactive)
CCRF-CEM
  GI50: > 100 µM (inactive)
COLO 205
  GI50: > 100 µM (inactive)
DU-145
  GI50: > 100 µM (inactive)
EKVX
  GI50: > 100 µM (inactive)
HCT-116
  GI50: > 100 µM (inactive)
HCT-15
  GI50: > 100 µM
HL-60
  GI50: 46.1 µM (inactive)
HOP-62
  GI50: > 100 µM (inactive)
HOP-92
  GI50: > 100 µM (inactive)
HT-29
  GI50: > 100 µM (inactive)
Hs-578T
  GI50: > 100 µM (inactive)
IGROV-1
  GI50: > 100 µM (inactive)
K562
  GI50: > 100 µM (inactive)
KM12
  GI50: > 100 µM (inactive)
LOX IMVI
  GI50: > 100 µM (inactive)
M14
  GI50: > 100 µM (inactive)
MCF7
  GI50: > 100 µM (inactive)
MDA-MB-231
  GI50: > 100 µM (inactive)
MDA-MB-435
  GI50: > 100 µM (inactive)
MDA-N
  GI50: > 100 µM (inactive)
Malme-3M
  GI50: > 100 µM (inactive)
NCI-H226
  GI50: > 100 µM (inactive)
NCI-H23
  GI50: > 100 µM (inactive)
NCI-H460
  GI50: > 100 µM (inactive)
NCI-H522
  GI50: > 100 µM (inactive)
NCI/ADR-RES
  GI50: > 100 µM (inactive)
OVCAR-3
  GI50: > 100 µM (inactive)
OVCAR-4
  GI50: > 100 µM (inactive)
OVCAR-5
  GI50: > 100 µM (inactive)
OVCAR-8
  GI50: > 100 µM (inactive)
PC-3
  GI50: > 100 µM (inactive)
RPMI-8226
  GI50: > 100 µM (inactive)
RXF 393
  GI50: > 100 µM (inactive)
SF-268
  GI50: > 100 µM (inactive)
SF-295
  GI50: > 100 µM (inactive)
SF-539
  GI50: > 100 µM (inactive)
SK-MEL-28
  GI50: > 100 µM (inactive)
SK-MEL-2
  GI50: > 100 µM (inactive)
SK-MEL-5
  GI50: > 100 µM (inactive)
SK-OV-3
  GI50: > 100 µM (inactive)
SN12C
  GI50: > 100 µM (inactive)
SNB-19
  GI50: > 100 µM (inactive)
SNB-75
  GI50: > 100 µM (inactive)
SR
  GI50: > 100 µM (inactive)
SW-620
  GI50: > 100 µM (inactive)
T47D
  GI50: 92 µM (inactive)
TK-10
  GI50: > 100 µM (inactive)
U-251
  GI50: > 100 µM (inactive)
UACC-257
  GI50: 44.9 µM (inactive)
UACC-62
  GI50: > 100 µM (inactive)
UO-31
  GI50: > 100 µM (inactive)

— ChEMBL document CHEMBL1201862, “PubChem BioAssay data set” (2004)
